Active and inactive are the calls of the source. The rule behind the calls is not given here.
Experiments:
[1] = test system: THP1-Dual; experiment: Cytotoxicity against human THP1-Dual cells assessed as effect on cell viability at 3 to 1000 nM followed by addition of conditioned medium containing 36 hrs compound pretreated human MDA-MB-231 cells measured after 24 hrs by celltiter-glo assay; format: functional, cell-based; settings: dose 3-1000 nM, time 60.0 hrs
[2] = Toxicity in female BALB/c mouse allografted with mouse CT26 cells assessed as change in body weight at 200 mg/kg QD, ip in presence of anti-PD-L1 antibody measured every 2 days for 12 days; format: organism-based; settings: in vivo, 288 h, time 12 day
[3] = test system: CT26; experiment: Antitumor activity against mouse CT26 cells allografted in female BALB/c mouse assessed as decrease in M2-type macrophages in tumor tissue at 200 mg/kg QD, ip measured every 2 days for 12 days by immunofluorescence analysis; format: functional, organism-based; settings: time 12.0 day
[4] = Cmax in Sprague-Dawley rat at 10 mg/kg, iv measured upto 24 hrs by LC-MS/MS analysis; format: ADME, organism-based; settings: in vivo
[5] = Apparent permeability across basal to apical side in human Caco-2 cells at 10 uM by LC-MS/MS analysis; format: ADME, cell-based
[6] = test system: THP-1; experiment: Activation of STING signalling pathway in human THP-1 cells assessed as increase in IFNB1 expression measured after 18 hrs in presence of cGAMP by qPCR analysis; format: cell-based; settings: filed as activator, dose 3-1000 nM
[7] = test system: CT26; experiment: Antitumor activity against mouse CT26 cells allografted in female BALB/c mouse assessed as decrease in M2-type macrophages in tumor tissue at 200 mg/kg QD, ip in presence of anti-PD-L1 antibody measured every 2 days for 12 days by immunofluorescence analysis; format: functional, organism-based; settings: time 12.0 day
[8] = Apparent permeability across apical to basal side in human Caco-2 cells at 10 uM by LC-MS/MS analysis; format: ADME, cell-based
[9] = Clearance in Sprague-Dawley rat at 10 mg/kg, iv measured upto 24 hrs by LC-MS/MS analysis; format: ADME, organism-based; settings: in vivo
[10] = test system: THP1-Dual KO-STING; experiment: Cytotoxicity against human THP1-Dual KO-STING cells assessed as effect on cell viability at 1 uM followed by addition of conditioned medium containing 36 hrs compound pretreated human MDA-MB-231 cells measured after 24 hrs by celltiter-glo assay; format: functional, cell-based; settings: time 60.0 hrs
[11] = MRT (0 to t) in Sprague-Dawley rat at 10 mg/kg, iv measured upto 24 hrs by LC-MS/MS analysis; format: ADME, organism-based; settings: in vivo
[12] = organism: Homo sapiens; experiment: Inhibition of STE (unknown origin) at 1 uM by KINOMEscan assay
[13] = test system: CT26; experiment: Antitumor activity against mouse CT26 cells allografted in female BALB/c mouse assessed as increase in M1-type macrophages in tumor tissue at 200 mg/kg QD, ip measured every 2 days for 12 days by immunohistochemical analysis; format: functional, organism-based; settings: time 12.0 day
[14] = test system: THP1-Dual; experiment: Activation of STING-mediated immune response in human THP1-Dual cells assessed as increase in cGAMP-induced ISRE activation preincubated in conditioned medium containing 36 hrs compound treated with human MDA-MB-231 cells measured after 24 hrs by quanti-luc luciferase assay; format: cell-based; settings: filed as activator, time 60.0 hrs
[15] = target: T1, Ectonucleotide pyrophosphatase/phosphodiesterase family member 1 (Homo sapiens, UniProt P22413); experiment: Inhibition of recombinant human ENPP1 transfected in HEK293T cells using cGAMP as substrate at pH 7.5 measured after 3.5 hrs by luminescence based AMP-glo assay; format: cell-based
T1 sequence (P22413 whole entry): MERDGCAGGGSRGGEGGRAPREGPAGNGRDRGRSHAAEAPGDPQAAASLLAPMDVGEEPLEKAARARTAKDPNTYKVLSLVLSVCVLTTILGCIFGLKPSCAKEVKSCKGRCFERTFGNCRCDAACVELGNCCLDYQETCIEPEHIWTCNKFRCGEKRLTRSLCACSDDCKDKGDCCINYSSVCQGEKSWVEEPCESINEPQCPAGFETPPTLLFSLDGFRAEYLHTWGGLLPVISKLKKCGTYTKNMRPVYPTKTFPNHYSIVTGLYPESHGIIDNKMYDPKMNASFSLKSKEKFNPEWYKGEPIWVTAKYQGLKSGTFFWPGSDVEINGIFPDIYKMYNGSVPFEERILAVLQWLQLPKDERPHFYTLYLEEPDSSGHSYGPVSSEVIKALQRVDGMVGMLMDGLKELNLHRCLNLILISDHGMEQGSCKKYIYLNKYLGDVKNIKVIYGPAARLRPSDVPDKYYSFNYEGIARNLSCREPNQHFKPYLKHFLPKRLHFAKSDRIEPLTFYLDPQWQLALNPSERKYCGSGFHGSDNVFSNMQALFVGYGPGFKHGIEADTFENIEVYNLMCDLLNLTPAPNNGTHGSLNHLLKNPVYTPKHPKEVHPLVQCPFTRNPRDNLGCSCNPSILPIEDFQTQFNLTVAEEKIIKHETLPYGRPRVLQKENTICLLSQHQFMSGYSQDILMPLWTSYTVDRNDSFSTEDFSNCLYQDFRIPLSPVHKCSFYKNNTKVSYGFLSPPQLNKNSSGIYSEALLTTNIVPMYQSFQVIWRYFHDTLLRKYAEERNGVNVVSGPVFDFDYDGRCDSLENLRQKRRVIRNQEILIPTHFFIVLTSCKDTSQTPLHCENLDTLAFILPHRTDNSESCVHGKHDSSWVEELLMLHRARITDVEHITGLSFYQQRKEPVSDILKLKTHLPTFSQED

[16] = test system: CT26; experiment: Antitumor activity against mouse CT26 cells allografted in female BALB/c mouse assessed as increase in infiltration of CD8+T cells in tumor tissue at 200 mg/kg QD, ip measured every 2 days for 12 days by immunohistochemical analysis; format: functional, organism-based; settings: time 12.0 day
[17] = test system: CT26; experiment: Antitumor activity against mouse CT26 cells allografted in female BALB/c mouse assessed as tumor growth inhibition at 200 mg/kg QD, ip measured every 2 days for 12 days in presence of anti-PD-L1 antibody relative to control; format: functional; settings: CT26, 288 h, time 12 day, read-out: TGI
[18] = test system: THP-1; experiment: Activation of STING signalling pathway in human THP-1 cells assessed as increase in IRF3 phosphorylation at 300 nM preincubated with compound for 2 hrs followed by cGAMP addition and measured after 3 hrs by Western blot analysis; format: cell-based; settings: filed as activator, time 5.0 hrs
[19] = target: Voltage-gated inwardly rectifying potassium channel KCNH2 (Homo sapiens, UniProt Q12809); experiment: Inhibition of hERG expressed in CHO cells by QPatch automated patch-clamp assay; format: toxicity, cell-based
[20] = Half life in Sprague-Dawley rat at 10 mg/kg, iv measured upto 24 hrs by LC-MS/MS analysis; format: ADME, organism-based; settings: in vivo
[21] = Toxicity in female BALB/c mouse allografted with mouse CT26 cells assessed as change in body weight at 200 mg/kg QD, ip measured every 2 days for 12 days; format: organism-based; settings: in vivo, 288 h, time 12 day
[22] = test system: CT26; experiment: Antitumor activity against mouse CT26 cells allografted in female BALB/c mouse assessed as increase in M1-type macrophages in tumor tissue at 200 mg/kg QD, ip in presence of anti-PD-L1 antibody measured every 2 days for 12 days by immunohistochemical analysis; format: functional, organism-based; settings: time 12.0 day

Voltage-gated inwardly rectifying potassium channel KCNH2, sequence (Q12809 whole entry): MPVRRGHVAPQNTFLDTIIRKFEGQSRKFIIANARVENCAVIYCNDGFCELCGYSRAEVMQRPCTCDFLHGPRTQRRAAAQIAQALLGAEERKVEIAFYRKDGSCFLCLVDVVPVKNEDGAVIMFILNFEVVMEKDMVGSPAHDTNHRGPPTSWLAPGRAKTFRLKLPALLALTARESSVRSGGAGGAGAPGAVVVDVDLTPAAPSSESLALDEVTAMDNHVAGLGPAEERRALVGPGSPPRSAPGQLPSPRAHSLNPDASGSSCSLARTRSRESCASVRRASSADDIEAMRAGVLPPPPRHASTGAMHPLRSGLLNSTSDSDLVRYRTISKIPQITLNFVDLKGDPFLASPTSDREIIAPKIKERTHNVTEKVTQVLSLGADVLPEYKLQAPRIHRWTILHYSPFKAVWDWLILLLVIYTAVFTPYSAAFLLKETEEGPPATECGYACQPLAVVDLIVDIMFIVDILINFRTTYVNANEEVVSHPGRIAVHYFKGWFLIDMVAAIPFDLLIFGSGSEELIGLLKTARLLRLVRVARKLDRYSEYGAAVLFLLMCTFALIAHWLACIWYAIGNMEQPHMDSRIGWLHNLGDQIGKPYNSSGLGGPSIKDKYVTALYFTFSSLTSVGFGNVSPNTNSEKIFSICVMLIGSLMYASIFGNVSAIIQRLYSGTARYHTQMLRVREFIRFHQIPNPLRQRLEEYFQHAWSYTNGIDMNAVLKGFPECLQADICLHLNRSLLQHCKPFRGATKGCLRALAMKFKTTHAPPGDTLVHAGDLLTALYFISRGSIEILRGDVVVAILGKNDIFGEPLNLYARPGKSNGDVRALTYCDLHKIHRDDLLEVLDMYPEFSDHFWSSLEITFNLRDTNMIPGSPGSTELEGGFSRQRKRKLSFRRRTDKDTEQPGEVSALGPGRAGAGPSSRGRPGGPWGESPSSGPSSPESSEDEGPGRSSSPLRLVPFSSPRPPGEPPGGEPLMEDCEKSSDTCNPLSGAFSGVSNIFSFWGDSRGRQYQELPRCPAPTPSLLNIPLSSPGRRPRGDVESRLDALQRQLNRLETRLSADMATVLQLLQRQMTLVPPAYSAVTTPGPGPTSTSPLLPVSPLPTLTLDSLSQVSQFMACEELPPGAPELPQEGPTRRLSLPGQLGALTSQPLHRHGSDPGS

Cmax [4]: 3220 ng/mL | Papp B→A at 10 µM [5]: 2.13 ×10⁻⁶ cm/s | Papp A→B at 10 µM [8]: 0.106 ×10⁻⁶ cm/s | clearance [9]: 84.5 mL/min/kg | MRT last at 24 h [11]: 39.7 min | inhibition [12]: inactive | IC50 [15]: 8.05 nM | half-life [20]: 46.7 min
SMILES: COc1cccc2c(N3CCC(O)(CNS(N)(=O)=O)CC3)ncnc12
Activity [1]: Active | Activity [2]: Non-toxic | Activity [3]: Active | Activity [6]: Dose-dependent-effect | Activity [7]: Active | Activity [10]: Active | Activity [13]: Active | Activity [14]: Dose-dependent-effect | Activity [16]: Active | inhibition in vivo at 200 mg/kg [17]: 64.6% | Activity [18]: Active | IC50 [19]: > 40 µM | Activity [21]: Non-toxic | Activity [22]: Active

Reference: ChEMBL document CHEMBL6114998, “Design, Synthesis, and Pharmacological Evaluation of Quinazoline and Quinoline Derivatives as Potent ENPP1 Inhibitors for Cancer Immunotherapy” (J Med Chem, 2025)
